Measurements: patent US20140023589A1, “FRMD4A ANTAGONISTS AND THEIR USES” (CANCER RESEARCH TECHNOLOGY LIMITED, priority 2011, published 2014)
“Also recorded” adds a separate entry of the source.

Columns and labels:
SCC13 cells [1] = experiment: SCC13 cells grown in the presence of 17-DMAG in vitro; format: cell-based, human; conditions: range of concentrations
SCC25 tongue xenograft = experiment: SCC25 tongue xenograft, 17-DMAG treatment; format: in vivo, mouse; conditions: weekly i.p. injections, compared to vehicle control
Experimental: (§1) All mice used were NOD.Cg-Prkdc^scid I12rg^tm1Wj1/SzJ or NOD/SCID Gamma (NSG) as they are commonly known. Mice were originally purchased from the Jackson Laboratories (Maine, USA) and then bred in-house. Experiments were subject to Cancer Research UK ethical review and were performed under the terms of a U.K. Government Home Office license. Tongue xenografts were carried out using inhalation anaesthesia and injection into the mucosa with a 30 g needle and 1 ml syringe. Mice were grafted using inhalation anaesthesia. An area of skin on the back of each mouse was shaved and cleaned with a betadine solution. Using a 6 mm punch biopsy punch a full thickness wound was created, into which the silicone chamber was inserted and stapled in place. A preparation of cells could then be injected into the chamber. After one week the top of the silicone chamber was cut off to allow the tumour to develop exposed to the normal skin-air interface. After a further week the whole silicone chamber was carefully removed. Mice were scanned with the Xenogen IVIS following an i.p. injection of luciferin (10 μl/g).
Mice were tongue grafted with 1×10E5 SCC25 cells. After one week an initial measurement was made with the Xenogen IVIS. Following this, each mouse was i.p injected with either 17-DMAG or vehicle control. […]

[2] = test system: normal human keratinocytes; experiment: Induced differentiation of normal human keratinocytes; format: cell-based
From the text: To determine the expression of FRMD4A mRNA in normal human skin we carried out in-situ hybridisations on normal human foreskin. […] Using the Zeiss PALM Laser Capture Microdissection system, samples were collected separately from the basal and granular layers of human abdomen skin sections. […] Levels of FRMD4A were contrary to this, with high levels in the less differentiated basal layer, which dropped to almost nothing in the more differentiated granular layer (FIG. 1B). Similarly, normal human keratinocytes grown in serum free culture were induced to differentiate, by the addition of AG1478 and BMP2/7 (FIG. 1C). Differentiation of the keratinocytes was confirmed by increased levels of transglutaminase in the presence of these agents alone compared to treatment with vehicle alone. Addition of both together led to expression of even higher levels of the differentiation marker TG-1. FRMD4A levels were high in the vehicle treated sample, but became barely detectable in the differentiated samples (FIG. 1C) showing that FRMD4A is associated with less differentiated cell types.

SCC cells = experiment: Incucyte timelapse growth of SCC cells (cell line not specified); format: cell-based, human; conditions: SCCs cultured on HA coated plates
Experimental: For Incucyte assays, 1000 cells were plated in triplicate for each condition, in a 48-well plate. Plates were imaged every 3 hours for 7 days.
Having established that FRMD4A has a functional role in SCC proliferation and tumour growth and that it is also modulating the differentiation of such cells, in part perhaps via cancer stem cells and is a key mediator of the Hippo pathway control in SCCs, the present inventors recognised that FRMD4A represents a potential target for therapeutic options. Currently many targeted antibody therapies are in clinical use or undergoing trials to determine their efficacy in the treatment of several malignant and non-malignant diseases. To test if any of the generated antibodies developed against FRMD4A may have a blocking effect on SCCs, the antibodies were added to cells grown in the Incucyte timelapse imaging system.

SCC13 cells [3] = experiment: Colony forming assay, SCC13; format: cell-based, human; conditions: plates coated with HA
Experimental: For colony forming assays, 100 cells were plated in triplicate in 10 cm plates. After 14 days, cultures were fixed and stained with 1% rhodamine B and 1% Nile blue (Acros Organic). Colony-forming efficiency was defined as the percentage of plated cells that formed a colony of three or more cells.

CD44 and FRMD4A staining = experiment: Immunostaining of cells grown on HA coated coverslips; format: cell-based, human
[4] = test system: SCC13 back skin xenograft; experiment: SCC13 back skin xenograft, hyaluronic acid treatment; format: in vivo, mouse
Experimental: as §1
Mice were grafted into the back skin with 1×10E6 SCC13 cells.
After one week an initial measurement was made with the Xenogen IVIS. Following this, each mouse was directly injected into the tumour with 200 μl of 0.1% HA. […]

[5] = injection in the skin and knee joint; cited from earlier work

For `CO[C@H]1/C=C\C=C(/C)C(=O)NC2=CC(=O)C(NCCN(C)C)=C(C[C@@H](C)C[C@H](OC)[C@H](O)[C@@H](C)/C=C(\C)[C@@H]1OC(N)=O)C2=O` [17-DMAG, 17-Dimethylaminoethylamino-17-demethoxygeldanamycin], the “killing of cells in vitro” value (SCC13 cells [1]) was “readily killed over a range of concentrations; also recorded: dramatic effect” and the progression of tumours (SCC25 tongue xenograft) was “slower progression of their tumours”.

In the case of `COc1cc2ncnc(Nc3cccc(Cl)c3)c2cc1OC` [AG1478], the FRMD4A levels [2] is reported as “downregulation of FRMD4A levels” and the TG1 levels ([2]; differentiation marker) is reported as “upregulation of TG1 levels”.

For hyaluronic acid [HA], the overall growth rate (SCC cells) was “decrease in growth rate; also recorded: reduces the growth of SCCs”, the average colony area (SCC13 cells [3]) was “reduction in average colony area” and the “average colony staining intensity” value (SCC13 cells [3]) was “reduction”. For the same molecule, the colony forming efficiency (SCC13 cells [3]) was “reduction in colony forming efficiency”, the CD44 staining (CD44 and FRMD4A staining) was “increase in CD44 staining” and the “nuclear FRMD4A staining” value (CD44 and FRMD4A staining) was “loss of nuclear FRMD4A staining”. For the same molecule, the survival ([4]; HA injection of xenograft tumours) was “increased survival”, the tumour growth rate ([4]; weekly intra-tumour injection, compared with PBS) was “reduced growth rate; also recorded: reduced the growth of the tumour” and the toxic effects [5] was “no apparent toxic effects”.
